Test results: patent US6924300B2, “Oxyiminoalkanoic acid derivatives” (Takeda Chemical Industries, Ltd., priority 1998, dated 2005)

System: KKA^y mice
Test: Hypoglycemic and hypolipidemic actions in mice (test compound in diet, plasma glucose and triglyceride)
Assay type: in vivo
Details: Mus musculus, feed or water, 96 h, 0.01% in diet, 4 days, plasma triglyceride, Iatro-MA701 TG kit, compared with non-treatment group, read-out: Hypotriglyceridemic effect (% reduction)
Description: A test compound was added to a powdered diet (CE-2, Clea Japan Inc.) at a concentration of 0.01%, and the diet was given ad libitum to KKA^y mice (9 to 12 weeks old, 5 animals in a group), a model of obese Type II diabetes mellitus (non-insulin dependent diabetes mellitus), for 4 days. During this period, water was given ad libitum. Blood was sampled from orbital venous plexus and plasma glucose and triglyceride levels were determined enzymatically using L type Wako Glu2 (Wako Pure Chemical In. Ltd.) and Iatro-MA701 TG kit (Iatron Laboratories Inc.) or L type Wako TG.H (Wako Pure Chemical Ind. Ltd.), respectively.
The value of each treatment group is represented as % reduction when compared with the non-treatment group, and summarized in Table 1.

| SMILES | inhibition in vivo at 0.01 % [%] |
| --- | --- |
| Cc1oc(-c2ccccc2)nc1COc1ccc(CO/N=C(\CCC(=O)O)c2ccccc2)cc1 [Example 7, E-4-[4-(5-methyl-2-phenyl-4-oxazolylmethoxy)benzyloxyimino]-4-phenylbutyric acid] | 61 |
| Cc1oc(-c2ccccc2)nc1COc1ccc(CO/N=C(\C(=O)O)c2ccc(Br)cc2)cc1 [Example 10, Z-2-(4-bromophenyl)-2-[4-(5-methyl-2-phenyl-4-oxazolylmethoxy)benzyloxyimino]acetic acid] | 45 |
| Cc1oc(-c2ccccc2)nc1COc1ccc(CO/N=C(\C(=O)O)c2ccccc2)cc1 [Example 1, Z-2-[4-(5-methyl-2-phenyl-4-oxazolylmethoxy)benzyloxyimino]-2-phenylacetic acid] | 35 |

Same assay, conditions: Mus musculus, feed or water, 96 h, 0.01% in powdered diet, 4 days, plasma glucose, compared with non-treatment group, read-out: Hypoglycemic effect (% reduction)

| SMILES | inhibition in vivo at 0.01 % [%] |
| --- | --- |
| Cc1oc(-c2ccccc2)nc1COc1ccc(CO/N=C(\CCC(=O)O)c2ccccc2)cc1 [Example 7, E-4-[4-(5-methyl-2-phenyl-4-oxazolylmethoxy)benzyloxyimino]-4-phenylbutyric acid] | 42 |
| Cc1oc(-c2ccccc2)nc1COc1ccc(CO/N=C(\C(=O)O)c2ccc(Br)cc2)cc1 [Example 10, Z-2-(4-bromophenyl)-2-[4-(5-methyl-2-phenyl-4-oxazolylmethoxy)benzyloxyimino]acetic acid] | 36 |
| Cc1oc(-c2ccccc2)nc1COc1ccc(CO/N=C(\C(=O)O)c2ccccc2)cc1 [Example 1, Z-2-[4-(5-methyl-2-phenyl-4-oxazolylmethoxy)benzyloxyimino]-2-phenylacetic acid] | 36 |

System: not given
Test: not given
Details: not given

| melting point | SMILES |
| --- | --- |
| 110 to 112 °C | Cc1oc(-c2ccccc2)nc1COc1ccc(CO/N=C(/CCC(N)=O)c2ccccc2)cc1 [Example 139, Z-4-[4-(5-methyl-2-phenyl-4-oxazolylmethoxy)benzyloxyimino]-4-phenylbutanamide] |
| 142 to 143 °C | Cc1oc(-c2cccs2)nc1COc1ccc(CO/N=C(\CCC(=O)O)c2ccccc2)cc1 [Example 97, E-4-[4-[5-methyl-2-(2-thienyl)-4-oxazolylmethoxy]benzyloxyimino]-4-phenylbutyric acid] |
| 131 to 133 °C | Cc1oc(-c2ccccc2)nc1COc1ccc(CO/N=C(/CCC(=O)O)c2ccco2)cc1 [Example 68, Z-4-(2-furyl)-4-[4-(5-methyl-2-phenyl-4-oxazolylmethoxy)benzyloxyimino]butyric acid] |
| 112 to 113 °C | Cc1oc(-c2ccccc2)nc1COc1ccc(CO/N=C(\CCCCC(=O)O)c2ccccc2)cc1 [Example 60, E-6-[4-(5-methyl-2-phenyl-4-oxazolylmethoxy)benzyloxyimino]-6-phenylhexanoic acid] |
| 84 to 85 °C | Cc1oc(-c2ccccc2)nc1COc1ccc(CO/N=C(\CCCCCC(=O)O)c2ccccc2)cc1 [Example 115, E-7-[4-(5-methyl-2-phenyl-4-oxazolylmethoxy)benzyloxyimino]-7-phenylheptanoic acid] |
| 164 to 165 °C | Cc1oc(-c2ccccc2)nc1COc1ccc(CO/N=C(\CC(N)=O)c2ccccc2)cc1 [Example 111, E-3-[4-(5-methyl-2-phenyl-4-oxazolylmethoxy)benzyloxyimino]-3-phenylpropanamide] |
| 116 to 117 °C | Cc1oc(-c2ccccc2)nc1COc1ccc(CO/N=C(\CCC(=O)O)c2ccccn2)cc1 [Example 64, E-4-[4-(5-methyl-2-phenyl-4-oxazolylmethoxy)benzyloxyimino]-4-(2-pyridyl)butyric acid] |
| 108 to 109 °C | Cc1oc(-c2ccccc2)nc1COc1cccc(CO/N=C(\CCC(=O)O)c2ccccc2)c1 [Example 77, E-4-[3-(5-methyl-2-phenyl-4-oxazolylmethoxy)benzyloxyimino]-4-phenylbutyric acid] |

Second part, the compound before the results:

| SMILES | melting point |
| --- | --- |
| CCOC(=O)/C(=N\OCc1ccc(OCc2nc(-c3ccccc3)oc2C)cc1)c1ccc(OC)cc1 [Example 19, ethyl Z-2-(4-methoxyphenyl)-2-[4-(5-methyl-2-phenyl-4-oxazolylmethoxy)benzyloxyimino]acetate] | 102 to 103 °C |
| COc1ccc(/C(CCCCCCC(=O)O)=N/OCc2ccc(OCc3nc(-c4ccccc4)oc3C)cc2)cc1 [Example 118, E-8-(4-methoxyphenyl)-8-[4-(5-methyl-2-phenyl-4-oxazolylmethoxy)benzyloxyimino]octanoic acid] | 69 to 70 °C |
| Cc1oc(-c2ccco2)nc1COc1ccc(CO/N=C(\CCCCCCC(=O)O)c2ccccc2)cc1 [Example 129, E-8-[4-[2-(2-furyl)-5-methyl-4-oxazolylmethoxy]benzyloxyimino]-8-phenyloctanoic acid] | 75 to 77 °C |
| O=C(O)CCCC/C(=N\OCc1ccc(OCc2noc(-c3ccccc3)n2)cc1)c1ccccc1 [Example 136, E-6-phenyl-6-[4-(5-phenyl-1,2,4-oxadiazol-3-ylmethoxy)benzyloxyimino]hexanoic acid] | 88 to 89 °C |
| O=C(O)CC/C(=N\OCc1ccc(OCc2cn3c(Cl)cccc3n2)cc1)c1ccccc1 [Example 55, E-4-[4-(5-chloroimidazo[1,2-a]pyridin-2-ylmethoxy)benzyloxyimino]-4-phenylbutyric acid] | 160 to 161 °C |
| Cc1oc(-c2ccccc2)nc1COc1ccc(CO/N=C(\C(=O)O)c2cccc(Oc3ccccc3)c2)cc1 [Example 13, Z-2-[4-(5-methyl-2-phenyl-4-oxazolylmethoxy)benzyloxyimino]-2-(3-phenoxyphenyl)acetic acid] | 173 to 174 °C (dec.) |
| Cc1oc(-c2ccccc2)nc1COc1ccc(CO/N=C(/c2ccccc2)C(C)(C)C(=O)O)cc1 [Example 110, Z-2,2-dimethyl-3-[4-(5-methyl-2-phenyl-4-oxazolylmethoxy)benzyloxyimino]-3-phenylpropionic acid] | 142 to 143 °C (dec.) |
| Cc1oc(-c2cccs2)nc1COc1ccc(CO/N=C(\CCCCCCC(=O)O)c2ccccc2)cc1 [Example 130, E-8-[4-[5-methyl-2-(2-thienyl)-4-oxazolylmethoxy]benzyloxyimino]-8-phenyloctanoic acid] | 106 to 108 °C |
| Cc1oc(-c2ccccc2)nc1COc1ccc(CO/N=C(\CCCCC(=O)NS(C)(=O)=O)c2ccccc2)cc1 [Example 142, E-N-methanesulfonyl-6-[4-(5-methyl-2-phenyl-4-oxazolylmethoxy)benzyloxyimino]-6-phenylhexanamide] | 130 to 132 °C |
| Cc1oc(-c2ccccc2)nc1COc1ccc(CO/N=C(\C(=O)O)c2cccc(Br)c2)cc1 [Example 43, Z-2-(3-bromophenyl)-2-[4-(5-methyl-2-phenyl-4-oxazolylmethoxy)benzyloxyimino]acetic acid] | 181 to 182 °C (dec.) |
| O=C(O)CC/C(=N\OCc1ccc(OCc2ccccc2)cc1)c1ccccc1 [Example 98, E-4-(4-benzyloxybenzyloxyimino)-4-phenylbutyric acid] | 86 to 87 °C |
| COC(=O)CC/C(=N\OCc1ccc(OCc2nc(-c3ccccc3)oc2C)c(OC)c1)c1ccccc1 [Example 149, methyl E-4-[3-methoxy-4-(5-methyl-2-phenyl-4-oxazolylmethoxy)benzyloxyimino]-4-phenylbutyrate] | 112 to 114 °C |
| Cc1oc(-c2ccccc2)nc1COc1ccc(CO/N=C(\CCC(=O)O)c2ccc(Oc3ccccc3)cc2)cc1 [Example 47, E-4-[4-(5-methyl-2-phenyl-4-oxazolylmethoxy)benzyloxyimino]-4-(4-phenoxyphenyl)butyric acid] | 131 to 132 °C |
| O=C(O)CC/C(=N\OCc1ccc(OCc2cn3ccccc3n2)cc1)c1ccccc1 [Example 101, E-4-[4-(imidazo[1,2-a]pyridin-2-ylmethoxy)benzyloxyimino]-4-phenylbutyric acid] | 180 to 182 °C |
